From patent US20110064773A1, “PHARMACEUTICAL COMPOSITIONS COMPRISING A THYROID HORMON AND THEIR THERAPEUTIC USE” (UNIVERSITE JOSEPH FOURIER, priority 2007, published 2011)
Entries after “also recorded” stand apart in the source; their conditions may differ.

Key:
liver mitochondria = assay: Rate of liver mitochondrial oxygen consumption (JO2) of treated Wistar rats; assay type: in vivo, rat; settings: vs placebo
Description: (§1) The major part of the liver and the red part of each quadriceps were rinsed, and chopped into isolation medium (250 mM sucrose, 20 mM Tris-HCl and 1 mM EGTA-Tris, pH 7.4). Nuclei and cell debris were removed by centrifugation at 800 g for 10 min. Mitochondria were then isolated from the supernatant by spinning twice at 8,000 g for 10 minutes. The mitochondrial pellet was resuspended in 0.5 ml of isolation buffer and kept on ice. Mitochondrial protein was measured by the bicinchoninic acid method (Pierce, Rockford, Ill.). The final mitochondrial suspensions were maintained on ice and were used for measurements of oxygen consumption rate.
(§2) The rate of mitochondrial oxygen consumption (JO2) was measured at 30° C. in an incubation chamber with a Clark-type O2 electrode filled with 2 ml of incubation medium (125 mM KCl, 10 mM Pi-Tris, 20 mM Tris-HCl, 0.1 mM EGTA, pH 7.2). All measurements were performed using mitochondria (1.0 or 0.2 mg mitochondrial protein/ml for liver and skeletal muscle) incubated either with various substrates: glutamate/malate (5 mM/2.5 mM) and succinate (5 mM), alone or in combination, palmitoyl carnitine (55 μM) and octanoyl carnitine (100 μM). For each substrate, JO2 was recorded in the presence of the substrate alone (State 2) and following the addition of 1 mM ADP (state 3). Oligomycin (1.25 μg/mg protein) was added to the mitochondrial suspension to determine the non-phosphorylating respiratory rate (state 4). The incubation medium was constantly stirred with a built-in electromagnetic stirrer and bar flea. The efficiency of the mitochondrial oxidative phosphorylation was assessed by the state 3/state 4 ratio which measures the degree of control imposed on oxidation by phosphorylation (respiratory control ratio, RCR).

Wistar rats [1] = assay: Plasma concentrations of glucose, triglycerides, cholesterol, FFA and HDL in Wistar rats; assay type: in vivo, rat; settings: for Glycerol (FIG. 60C), plasma / HDL (FIG. 60D), plasma: 21 days
From the text: These measurements were done on venous blood of the rats the day of the sacrifice.
At the end of the experimental period, animals were sacrificed by decapitation, in order to avoid the well-known effects of general anesthetics on mitochondrial metabolism. Blood samples were immediately collected and plasma was frozen for subsequent determination of serum metabolites and hormones. Liver, muscles and fat depots were quickly excised and weighed. Liver median lobe was rapidly freeze-clamped. Muscles (plantaris, soleus and gastrocnemius) were frozen in isopentane precooled in liquid nitrogen. Mesenteric fat consisted of adipose tissue surrounding the gastro-intestinal tract from the gastro-oesophageal sphincter to the end of the rectum with special care taken in distinguishing and removing the pancreas. Retroperitoneal fat pad was taken as the distinct depot behind each kidney along the lumbar muscles. Epididymal fat consisted of adipose tissue on top of the epididymis. For subcutaneous depot measurement, a rectangular piece of skin was taken on the right side of each animal from the median line of the abdomen between the spine and the right hip to the first rib. Interscapular brown adipose tissue was removed and dissected free from adjacent muscles and white adipose tissue. The heart ventricles, the right kidney and the spleen were also excised, weighed and frozen.
Glucose and 3-hydroxybutyrate (3-HB) were measured enzymatically and non esterified fatty acid (NEFA) by colorimetric assay (Wako Chemicals).
Triglycerides and cholesterol were measured by classical routine automate apparatus.

[2] = system: nuclear receptors of the thyroid hormones, TRα-1 and TRβ-1; settings: literature statements; cited from earlier work
ZDF rats = assay: Body weight and food intake of ZDF rats; assay type: in vivo, rat; settings: 2.5 μg/100 g BW/day, 21 days
Description: Adult male rat bred in the animal room facilities of Laboratory of Fundamental and Applied Bioenergetics (Wistar strain) or purchased from Charles-River Laboratories, Domaine des oncins, L'ARBRESLE France [(genetically obese normoglycemic (Zucker or Fa/Fa) or diabetic (ZDF)] were caged individually in stainless steel hanging cages and maintained in a 22° C., 50±10% relative humidity and 12 h:12 h light:dark environment. All animals were fed ad libitum with a standard rat chow (Safe A04, Villemoisson, France) and tap water. Body mass and food intake were recorded twice/thrice a week and fresh food was provided at the same time to ensure minimal disturbance to the animals' food behavior.
Then ZDF rats were treated with low doses of rT3 for 21 days (2.5 μg/100 g BW/day) and the glycaemia, insulinaemia were measured after 8, 16 and 21 days.

muscle mitochondria = assay: Rate of muscle mitochondrial oxygen consumption (JO2) of treated Wistar rats; assay type: in vivo, rat; settings: 250 μg/kg BW/day, vs placebo
Description: as §1, §2

Wistar rats [3] = assay: Wistar rats treated with PTU and IOP (deiodinase inhibition, hypothyroid state) with or without rT3; assay type: in vivo, rat
Description: Thyroid Stimulating Hormone (TSH) and thyroxine (T4) were measured by radioimmunoassay with rat standards (RPA 554 Amersham bioscience, RIA FT4-immunotech, for TSH and T4 respectively).
In order to understand the mode of action of the treatments, Wistar rats were treated with pharmacological products that inhibit the synthesis and deiodination of thyroid hormones PTU and IOP.
Animals (Wistar) were submitted to a treatment by propyl-thiouracile (PTU in the drinking water) and iopanoic acid (IOP one sc-injection weekly) inducing a complete inhibition of all deiodinases (types I, II and III). Such treatment is responsible for the induction of a severe hypothyroid state. In addition this treatment impairs the peripheral metabolism of all thyroid hormones by deiodination. Some rats were also submitted to a sub-cutaneous administration of rT3 (2.5 μg/100 g). Three groups were constituted: controls, PTU+IOP and PTU+IOP+rT3 and duration of the experiment was 3 weeks.

Wistar rats [4] = assay: OGTT in Wistar rats fed a high fat high sucrose diet; assay type: in vivo, rat; settings: 8 weeks high fat high sucrose diet, rT3 2.5 μg/100 g, vs placebo
Description: A clinically relevant situation of a nutritionally-induced insulin resistance is known as a high fat high sucrose diet (HF). Therefore, the effects of rT3 on glucose and insulin response to an OGTT test were investigated. Wistar rats were fed a diet containing 45.5% fat (38% lard and 7.5% soy oil) and 34% carbohydrate (25% as sucrose) for 8 weeks. OGTT was performed as described above.

Wistar rats [5] = assay: De novo hepatic lipogenesis (stable isotopes); assay type: in vivo, rat; settings: rT3 2.5 μg/100 g BW
From the text: To confirm this point, the rate of endogenous triglyceride synthesis by using stable isotopes has been assessed.

[6] = high dose 250 μg/kg BW/day, various substrates
[7] = Wistar rats, high dosage 25 μg/100 g BW
[8] = Wistar rats, high dose 250 μg/kg BW/day, day of sacrifice, vs placebo
[9] = Wistar rats, low dosage 2.5 μg/100 g BW
[10] = PTU+IOP alone vs placebo, or rT3 2.5 μg/100 g added to PTU+IOP
[11] = PTU+IOP alone, or rT3 (2.5 μg/100 g) added to PTU+IOP

N[C@@H](Cc1ccc(Oc2cc(I)c(O)c(I)c2)c(I)c1)C(=O)O [rT3, 3′,5′,3-triiodothyronine]
Liver mitochondrial respiratory rate, non-phosphorylating (state 4, oligomycin) (liver mitochondria; [6]): much higher as compared to placebo; also recorded: dose-dependent increase
Liver mitochondrial respiratory rate, phosphorylating (state 3, ADP) (liver mitochondria; [6]): very significant increased respiratory rate; also recorded: dose-dependent increase
Liver mitochondrial respiratory rate, non-phosphorylating (state 4) (liver mitochondria; low dose 25 μg/kg BW/day): decreased efficiency; also recorded: dose-dependent increase
Liver mitochondrial respiratory rate, phosphorylating (state 3) (liver mitochondria; low dose 25 μg/kg BW/day): higher maximal respiratory capacity; also recorded: dose-dependent increase
Cholesterol plasmatic concentration (Wistar rats [1]; Wistar rats, 250 μg/kg BW/day, day of sacrifice, vs placebo): significantly lower
Glycerol (FIG. 60C), plasma (Wistar rats [1]; [7]): reduction
HDL (FIG. 60D), plasma (Wistar rats [1]; [7]): reduction
Plasma free fatty acids (FFA) (Wistar rats [1]; [8]): higher; also recorded: stimulates the liberation of FFA
Triglycerides plasmatic concentration (Wistar rats [1]; [8]): significantly lower; also recorded: degradation of triglycerides
Glycerol (FIG. 60C), plasma (Wistar rats [1]; [9]): reduction
HDL (FIG. 60D), plasma (Wistar rats [1]; [9]): reduction
Fasting glucose plasmatic concentration (Wistar rats [1]; normal (non diabetic) Wistar rats, 250 μg/kg BW/day, day of sacrifice, vs placebo): slightly increased
Binding to the nuclear (TH) receptors [2]: very little affinity
Appetite (food intake) (ZDF rats): not associated with a loose of appetite
Animal mass (body weight) (ZDF rats; vs placebo): slimmer; also recorded: reduced
Muscle mitochondrial respiration, non-phosphorylating (state 4) (muscle mitochondria): failed to substantially affect
Muscle mitochondrial respiration, phosphorylating (state 3) (muscle mitochondria): failed to substantially affect
Animal mass (body weight) (Wistar rats [3]; 3 weeks, PTU+IOP alone vs controls, or rT3 2.5 μg/100 g sc added to PTU+IOP): enhances the decrease induced by PTU-IOP
Appetite (food intake) (Wistar rats [3]; 3 weeks, PTU-IOP with or without rT3 2.5 μg/100 g): remains unchanged
Energy expenditure (EE) (Wistar rats [3]; [10]): enhanced
Respiratory quotient (RQ) (Wistar rats [3]; [10]): enhanced
Activity of mGPdH (Wistar rats [3]; [11]): stimulates
Brown adipose tissue mass (Wistar rats [3]; [11]): also enhanced
Mitochondrial state 3 respiratory rate with GM, S and GMS (Wistar rats [3]; [11]): corrected the effect of PTU+IOP
Blood glucose, area under the curve (AUC) after OGTT (Wistar rats [4]): significant lowering
Blood glucose, change over time of plasma concentration after OGTT (Wistar rats [4]): significant lowering
Insulin levels, AUC after OGTT (Wistar rats [4]): significantly lower
Insulin levels, changes over time after OGTT (Wistar rats [4]): significantly lower
Endogenous (liver) synthesis of lipids (Wistar rats [5]; day and night, effect maximal during the day): powerful stimulation
Hepatic lipogenesis, increase (Wistar rats [5]; vs placebo): ~4 fold
